The values that follow come from US7968522B2, “Treatment and prophylaxis of sepsis and septic shock” (Polytechnic Institute of NYU, priority 2003, dated 2011).

The test system of this experiment is RAW 264.7 cells. In words: LPS-induced NO production (nitrite, Griess reaction) in mouse macrophages. The note with it: for effect on LPS-induced NO production: varying concentrations, added 1.5 h before, after or simultaneously with LPS. The format is cell-based. How it is done:
As nitric oxide production is a useful marker of macrophage response to bacterial LPS, the in vitro model system is a valuable tool for examining the modulating effects of sophorolipids on LPS-induced macrophage responses under controlled conditions. Mouse macrophages (RAW 264.7, ATCC) were incubated in the presence of LPS (Salmonella typhimurium, Sigma #6511) (50 ng/ml, an optimal dose for inducing NO production), and varying concentrations of sophorolipids (SL, natural mixture), sophorolipid diethyl ester (E), and corresponding sophorolipid diacetate (K). Sophorolipids were added 1.5 hours before, 1.5 hours after, or simultaneously with LPS. Aliquots of culture supernatants were collected after 5 days and NO content was determined by measuring nitrite (modified Griess reaction). Briefly, triplicate 50 μl aliquots of the culture supernatant were mixed in wells of a 96-well microtiter plate with 100 μl of Griess reagent containing a 1:1 (vol/vol) mixture of 1% (wt/vol) sulfanilamide in 30% acetic acid and 0.5% (wt/vol) of N-(-1-Naphthyl)ethylenediamine dihydrochloride in 60% acetic acid. Chromophore generated by the reaction with nitrite was detected spectrophotometrically (550 nm) using a microtiterplate reader (ELx 800, BioTek Instruments, Winooski, Vt.). The concentration of nitrite was calculated by using calibration with known concentrations of NaNO2.
This in vitro model system made it possible to examine in detail the effects of sophorolipids on LPS induced NO production as a marker of the acute inflammatory pathway that leads to septic shock in vivo. NO production appeared to depend on the sequence of addition of sophorolipids relative to LPS. The in vitro effects were most pronounced when sophorolipids were introduced either before or simultaneously with LPS.

SMILES strings stand for the structures. “Also recorded” adds a separate entry of the source.

With `CCOC(=O)CCCCCCC/C=C\CCCCCCC(C)O[C@@H]1O[C@H](CO)[C@@H](O)[C@H](O)[C@H]1O[C@@H]1O[C@H](CO)[C@@H](O)[C@H](O)[C@H]1O` (relative stereo) [E, Ethyl 17-L-[(2′-O-β-D-glucopyranosyl-β-D-glucopyranosyl)-oxy]-cis-9-octadecenoate], the “effect on LPS-induced NO production” value is “inhibited LPS-induced NO production in a dose- and time-dependent manner”. In addition, where the note is “RAW 264.7 cells, LPS 50 ng/ml”, the “rating of the potency of inhibitory activities on LPS induced NO production” value was “E>SL>K; also recorded: least inhibitory and the most variable effects”. Where the note is “at 25 ng/ml, LPS 50 ng/ml, RAW 264.7 cells, supernatants after 5 days”, the “inhibition of LPS-induced NO production (plateau / maximum)” value was 60-65%.

Regarding `CCOC(=O)CCCCCCC/C=C\CCCCCCC(C)O[C@@H]1O[C@H](COC(C)=O)[C@@H](O)[C@H](O)[C@H]1O[C@@H]1O[C@H](COC(C)=O)[C@@H](O)[C@H](O)[C@H]1O` (relative stereo) [K, Ethyl 17-L[(2′-O-β-D glucopyranosyl-β-D-glucopyranosyl)-oxy]-cis-9-octadecenoate 6′,6″-diacetate], the “effect on LPS-induced NO production” value is “inhibited LPS-induced NO production in a dose- and time-dependent manner”. Also, the “rating of the potency of inhibitory activities on LPS induced NO production” value (RAW 264.7 cells, LPS 50 ng/ml) was “E>SL>K”.
